Assay [1] can be described thus: cells. The assay is classed as functional, cell-based.
Assay [2] can be described thus: cells. Type of assay: functional, cell-based. The source holds these as a separate data set.
Assay [3] in a line: OVCAR-3 cell viability loss – plate reader, dry powder samples, PAX8 inhibitor project, dose response (AID 743044). The assay is classed as functional, cell-based.
In the next assay the target is Paired box protein Pax-8 (Homo sapiens, UniProt Q06710). As to the kind of experiment: PAX8 transcriptional activity inhibition in RMG-I – RMG-I cells, luciferase, cherry-pick, dose response (AID 687027).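 Further: luciferase reporter driven by Pax8 target thyroperoxidase promoter measured by SteadyGlo luminescence.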 The assay is classed as functional, cell-based.
The nature of assay [4]: OVCAR8 cell viability loss – plate reader, dry powder samples, PAX8 project, dose response (AID 743197). The assay is classed as functional, cell-based. Particulars: OVCAR-8.
For assay [5], the target named is Heat shock protein HSP 90-alpha (Homo sapiens, UniProt P07900). The assay is classed as functional, organism-based.
Assay [6] has as its target Induced myeloid leukemia cell differentiation protein Mcl-1 (Homo sapiens, UniProt Q07820). Type of assay: functional.
A further assay addresses Cytochrome P450 3A4 (Homo sapiens, UniProt P08684). Particulars: Potency.
The target in assay [7] is T1, Ubiquitin-conjugating enzyme E2 N (Homo sapiens, UniProt P61088).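 Further: Dose-response confirmation in a TR-FRET assay detecting UBC13-driven polyubiquitin chain formation, inhibition measured.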
T1 sequence (P61088 whole entry): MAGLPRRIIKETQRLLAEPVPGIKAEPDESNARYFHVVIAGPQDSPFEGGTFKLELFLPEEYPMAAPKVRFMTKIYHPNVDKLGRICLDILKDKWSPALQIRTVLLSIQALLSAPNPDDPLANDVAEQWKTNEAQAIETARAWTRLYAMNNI
The assay is classed as functional.

Assay [8] is described as follows: cells. Type of assay: functional.
The nature of assay [9]: THP-1 cell cytotoxicity, dose response, cytotoxicity control for non-replicating M. tuberculosis project (AID 489025). The assay is classed as functional.
A further assay concerns H4. As to the kind of experiment: Luminescence Cell-Based Dose Response HTS to Identify Activators of 5'UTR Stem-Loop Driven Prion Protein mRNA Translation in H4 Neuroglioblastoma Cells. [Related pubchem assays: 1829 (Project Summary), 1814 (Primary HTS)]. The assay is classed as functional. Particulars: Homo sapiens.
For assay [10], the target named is T2, RNA-binding protein pos-1 (Caenorhabditis elegans, UniProt G5EF15).
T2 sequence (G5EF15 whole entry): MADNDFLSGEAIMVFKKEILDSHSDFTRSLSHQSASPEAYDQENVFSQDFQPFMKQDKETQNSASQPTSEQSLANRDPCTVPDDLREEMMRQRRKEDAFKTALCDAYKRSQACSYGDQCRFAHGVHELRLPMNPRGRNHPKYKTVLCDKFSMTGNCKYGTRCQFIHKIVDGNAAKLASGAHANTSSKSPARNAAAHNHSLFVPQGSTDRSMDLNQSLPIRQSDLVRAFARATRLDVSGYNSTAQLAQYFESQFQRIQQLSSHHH
Description: disruptors of C. elegans POS-1 RNA interaction – biochemical, fluorescence polarization, dose response (AID 1964).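 Further: purified POS-1 fused to maltose binding protein made in E. coli; potency of compounds blocking POS-1 binding to fluorescent RNA.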

Assay [11] can be described thus: Luminescence Cell-Based Dose Confirmation HTS to Identify Activators of 5'UTR Stem-Loop Driven Alpha-Synuclein mRNA Translation in H4 Neuroglioblastoma Cells. [Related pubchem assays: 1829 (Project Summary), 1814 (Primary HTS)]. The assay is classed as functional.
Assay [12] is described as follows: Luminescence Cell-Based Dose Response HTS to Identify Activators of Luciferase Translation or Activity in H4 […] Cells. [Related pubchem assays: 1829 (Project Summary), 1814 (Primary HTS)]. The assay is classed as functional.
Assay [13] addresses T3, Zinc finger protein mex-5 (Caenorhabditis elegans, UniProt Q9XUB2).
T3 sequence (Q9XUB2 whole entry): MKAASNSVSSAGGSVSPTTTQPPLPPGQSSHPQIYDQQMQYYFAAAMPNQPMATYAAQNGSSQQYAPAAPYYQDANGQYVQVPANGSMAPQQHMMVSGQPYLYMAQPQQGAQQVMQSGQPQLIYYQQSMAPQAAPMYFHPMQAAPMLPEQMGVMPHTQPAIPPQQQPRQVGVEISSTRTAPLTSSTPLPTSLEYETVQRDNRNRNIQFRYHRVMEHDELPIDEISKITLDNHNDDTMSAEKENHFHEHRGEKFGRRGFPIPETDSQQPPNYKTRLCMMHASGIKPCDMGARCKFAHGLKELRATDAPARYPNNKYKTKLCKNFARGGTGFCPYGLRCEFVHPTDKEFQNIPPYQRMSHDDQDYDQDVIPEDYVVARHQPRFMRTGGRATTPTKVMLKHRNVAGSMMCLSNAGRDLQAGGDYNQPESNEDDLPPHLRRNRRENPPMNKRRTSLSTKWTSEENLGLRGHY
Description: potency of MEX-5 RNA-binding blockers – biochemical, C. elegans, fluorescence polarization, dose response (AID 1960).

The target of assay [14] is T4, Mannose-6-phosphate isomerase (Homo sapiens, UniProt P34949).
T4 sequence (P34949 whole entry): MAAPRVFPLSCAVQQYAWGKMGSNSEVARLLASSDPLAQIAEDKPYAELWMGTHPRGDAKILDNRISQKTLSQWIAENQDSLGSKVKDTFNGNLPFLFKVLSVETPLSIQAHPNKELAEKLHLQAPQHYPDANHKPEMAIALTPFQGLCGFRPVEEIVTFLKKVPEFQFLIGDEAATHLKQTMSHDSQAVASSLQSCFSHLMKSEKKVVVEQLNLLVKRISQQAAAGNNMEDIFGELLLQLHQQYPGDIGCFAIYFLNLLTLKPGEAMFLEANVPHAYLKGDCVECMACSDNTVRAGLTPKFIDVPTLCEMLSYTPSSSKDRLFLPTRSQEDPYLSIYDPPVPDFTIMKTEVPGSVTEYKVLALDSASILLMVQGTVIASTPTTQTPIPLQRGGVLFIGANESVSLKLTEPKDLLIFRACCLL
As to the kind of experiment: MPI inhibition at elevated mannose 6-phosphate – biochemical, fluorescence intensity, high mannose 6-phosphate, primary screen (AID 1220).

A further assay addresses T5, Cytochrome P450 1A2 (Homo sapiens, UniProt P05177).
T5 sequence (P05177 whole entry): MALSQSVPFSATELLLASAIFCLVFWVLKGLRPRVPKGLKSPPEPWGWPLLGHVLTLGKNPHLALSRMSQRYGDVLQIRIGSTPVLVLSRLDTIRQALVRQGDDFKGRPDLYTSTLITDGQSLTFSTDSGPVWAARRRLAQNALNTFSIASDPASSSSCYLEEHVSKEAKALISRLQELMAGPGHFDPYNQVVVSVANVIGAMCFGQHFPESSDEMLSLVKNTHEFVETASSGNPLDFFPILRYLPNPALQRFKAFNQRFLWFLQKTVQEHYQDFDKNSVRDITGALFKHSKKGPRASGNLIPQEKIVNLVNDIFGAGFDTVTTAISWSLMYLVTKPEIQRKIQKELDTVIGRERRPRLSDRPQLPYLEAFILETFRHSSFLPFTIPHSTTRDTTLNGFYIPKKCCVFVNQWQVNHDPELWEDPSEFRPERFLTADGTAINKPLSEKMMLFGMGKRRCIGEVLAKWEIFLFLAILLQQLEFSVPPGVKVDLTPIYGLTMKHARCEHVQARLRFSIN

Assay [15] in a line: general cell-killing toxicity readout – plate reader, dry powder samples, cytotoxicity control for PAX8 inhibitor project, dose response (AID 743021). Type of assay: functional, cell-based.
Assay [16] is described as follows: NIH3T3 cell viability loss – ATP luminescence, mouse fibroblasts, counter-screen, dose response (AID 2010).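 Further: cells exposed to compound for about 90 hours before reading.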 Type of assay: functional, cell-based.
Assay [17] can be described thus: Trypanosoma cruzi growth suppression in host cells – NIH3T3 host cells, beta-gal luminescence, confirmation (AID 2044).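 Further: intracellular parasites grown in NIH/3T3 mouse fibroblasts as host cells; luminescent beta-galactosidase reporter signal from transgenic T. cruzi replicating inside host cells; inhibitors lower the luminescence signal.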 The assay is classed as functional, cell-based.

Activity calls are given as the source filed them.

Sequence of Cytochrome P450 3A4 (P08684 whole entry): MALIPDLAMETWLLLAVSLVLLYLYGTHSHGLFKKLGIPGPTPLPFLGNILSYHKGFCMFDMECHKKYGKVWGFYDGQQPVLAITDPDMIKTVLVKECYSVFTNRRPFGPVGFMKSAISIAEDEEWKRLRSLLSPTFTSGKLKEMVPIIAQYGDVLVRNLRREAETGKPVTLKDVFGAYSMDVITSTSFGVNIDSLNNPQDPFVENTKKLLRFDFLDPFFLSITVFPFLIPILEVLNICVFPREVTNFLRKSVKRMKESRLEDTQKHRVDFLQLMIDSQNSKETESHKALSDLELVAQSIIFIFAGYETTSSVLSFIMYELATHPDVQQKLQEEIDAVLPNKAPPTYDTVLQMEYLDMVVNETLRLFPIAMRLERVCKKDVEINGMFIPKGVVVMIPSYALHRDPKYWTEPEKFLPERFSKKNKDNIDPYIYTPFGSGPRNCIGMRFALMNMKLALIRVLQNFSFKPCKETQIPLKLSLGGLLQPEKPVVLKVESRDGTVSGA
Sequence of Induced myeloid leukemia cell differentiation protein Mcl-1 (Q07820 whole entry): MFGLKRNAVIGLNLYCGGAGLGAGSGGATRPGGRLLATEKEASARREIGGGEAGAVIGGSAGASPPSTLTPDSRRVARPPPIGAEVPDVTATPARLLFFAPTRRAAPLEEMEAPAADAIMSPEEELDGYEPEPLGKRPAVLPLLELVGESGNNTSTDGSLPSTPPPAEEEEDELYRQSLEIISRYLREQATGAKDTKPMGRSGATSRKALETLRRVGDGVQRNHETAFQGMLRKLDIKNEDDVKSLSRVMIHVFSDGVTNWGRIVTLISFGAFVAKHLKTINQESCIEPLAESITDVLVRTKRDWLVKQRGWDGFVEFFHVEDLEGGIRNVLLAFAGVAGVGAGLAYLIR
Sequence of Paired box protein Pax-8 (Q06710 whole entry): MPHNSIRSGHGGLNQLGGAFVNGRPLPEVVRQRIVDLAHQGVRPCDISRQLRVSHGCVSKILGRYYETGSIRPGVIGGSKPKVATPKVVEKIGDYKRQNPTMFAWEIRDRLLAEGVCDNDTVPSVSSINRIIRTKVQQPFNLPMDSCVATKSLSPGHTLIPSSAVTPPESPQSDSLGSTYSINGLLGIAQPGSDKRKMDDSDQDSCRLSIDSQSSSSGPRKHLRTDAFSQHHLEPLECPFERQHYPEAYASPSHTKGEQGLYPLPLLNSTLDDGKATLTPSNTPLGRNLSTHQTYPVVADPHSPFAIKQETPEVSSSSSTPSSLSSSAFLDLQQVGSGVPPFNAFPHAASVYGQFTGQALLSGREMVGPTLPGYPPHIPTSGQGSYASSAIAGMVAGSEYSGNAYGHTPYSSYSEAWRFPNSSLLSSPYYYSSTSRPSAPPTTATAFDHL

`CCc1ccc(NC(=O)COC(=O)c2cccs2)cc1`: the results for the 50% effective concentration (EC50) in “cells [1]” and in “cells [2]” were > 350 µM (not active) and 79.4 µM (active), respectively.

On to `C[C@H]1CCCCO[C@@H](CN(C)Cc2ccc3c(c2)OCO3)[C@@H](C)CN([C@@H](C)CO)C(=O)c2cc(NC(=O)Nc3ccc(F)cc3)ccc2O1`, for which the AC50 is 31.2 µM (active) in [3] and 22 µM (active) at Paired box protein Pax-8.

Regarding `C[C@H](CO)N1C[C@H](C)[C@H](CN(C)Cc2ccc(C(F)(F)F)cc2)OCCCC[C@H](C)Oc2ccc(NC(=O)CCC(F)(F)F)cc2C1=O`, the AC50 in [4] was 63.8 µM (active); in assay [3], 14.8 µM (active); at Paired box protein Pax-8, 5.89 µM (active).

Turning to `COC(=O)c1ccc(N2C(=O)CC(N3CCC(O)(c4ccc(Br)cc4)CC3)C2=O)cc1` (configuration not stated), in assay [5], the AC50 was 2.85 µM (active).

For `COc1cccc(C(=O)Nc2cc(Cl)c(O)c(Cl)c2)c1`, the IC50 in assay [6] is given as 3.46 µM (not active).

In the case of `COc1ccc(-c2nnc(SCC(=O)Oc3ccc(C)cc3)o2)cc1`, the concentration at half-maximal activity (AC50) in assay [5] is 2.53 µM (active).

With `COC(=O)c1cccc(C23CC4(C2)[C@H](CN(C)[C@@H]4c2ccccc2)C3c2ccc(Cl)nc2)c1` (some centres not stated), the concentration at half-maximal activity (AC50) at Cytochrome P450 3A4 was 5.01 µM (inconclusive).

For the compound `CCN(/N=C/c1ccc(N(C)C)cc1)c1nc2ccccc2[nH]1`, in [6], the IC50 was 1.44 µM (active).

For `COc1ccc(OC)c(NC(=O)CCc2nnc3ccc(NCc4ccco4)nn23)c1`, the concentration giving a half-maximal response (EC50) in the assay “cells [1]” and in the assay “cells [2]” was > 350 µM (not active) in each case.

Regarding `Cc1nnc(C)n1/N=C/c1cc(Br)cc(Br)c1O`, the AC50 in assay [5] was 1.68 µM (active).

Take `COc1ccccc1NC(=O)COC(=O)C12CC3CC(CC(Br)(C3)C1)C2`: the IC50 in assay [7] was > 20 µM (inactive).

`CC1(C)CC[C@]2(C(=O)O)CC[C@]3(C)C(=CCC4[C@@]5(C)CC[C@H](O)C(C)(C)C5[C@H](O)C[C@]43C)C2C1` (some centres not stated): the AC50 at Cytochrome P450 3A4 was 25.1 µM (inconclusive).

Take `CN1CC(=O)N=C1NC(=O)C12CC3CC(CC(C3)C1)C2`: the IC50 in the assay “cells [8]” is 23.9 µM (active). In addition, the CC50 in assay [9] is > 40 µM (active).

With `CCOc1ccc(N2C(=O)CC(Sc3nc(C)cc(C)n3)C2=O)cc1` (configuration not stated), the EC50 in the assay “cells [1]” and in the assay “cells [2]” was > 350 µM (not active) in each case.

On to `CC(C)(O)C(=O)Nc1ccc([N+](=O)[O-])c(C(F)(F)F)c1` [HYDROXYFLUTAMIDE], for which, at Cytochrome P450 3A4, the AC50 was 25.1 µM (inconclusive).

With `NC(=S)NNC(=O)c1cc(C(F)(F)F)cc(C(F)(F)F)c1`, the EC50 in “cells [1]” and in “cells [2]” was > 350 µM (not active) each time.

For `O=c1cc(-c2ccccc2O)oc2c(O)c(O)ccc12`, the AC50 at Cytochrome P450 3A4 was 31.6 µM (inconclusive).

For `O=C(/C=C/N1CCOCC1)c1ccc(-c2ccccc2)cc1`, the EC50 with H4 was 57.7 µM (active); in assay [10], > 300 µM (not active); in [11], 3.53 µM (active); in [12] it was 36.8 µM (active); in assay [13], > 300 µM (not active). In [5], the concentration at half-maximal activity (AC50) is 1.68 µM (active).

As for `COCCNc1nc(C)nc2c1nc(-c1ccccc1)n2CCCN1CCCCC1C` (configuration not stated), the AC50 on Cytochrome P450 3A4 is 3.98 µM (inconclusive).

Consider `CN(CCO)c1nc(N)c2c(N)nc3c(c2c1C#N)CC(=O)N3C1CCCC1`, for which the concentration for half-maximal inhibition (IC50) in [14] is listed as > 50 µM (not active). The AC50 on Cytochrome P450 1A2 was 2.82 µM (inconclusive).

With `CCCCCCC(=O)N(O)C1CC(=O)N(c2ccc(Cl)cc2)C1=O` (configuration not stated), in assay [5], the half-maximal activity concentration (AC50) is 1.64 µM (active).

For the compound `C[C@@H]1CN([C@@H](C)CO)S(=O)(=O)c2ccc(C#Cc3ccccc3F)cc2O[C@H]1CN(C)C(=O)Cc1ccccc1`, the AC50 is 37.6 µM (active) in assay [4], 14.5 µM (active) in [3], 25.5 µM (active) in assay [15] and 5.88 µM (active) on Paired box protein Pax-8.

As for `CC1(C)CCC2(C(=O)O)CC[C@]3(C)C(=CCC4[C@]5(C)CCC(O)C(C)(C)C5C(O)C[C@]43C)C2C1` (some centres not stated), the AC50 at Cytochrome P450 3A4 was 2.51 µM (inconclusive).

Consider `COC(=O)c1cc(OC)c(=O)c2c(OC)c(OC)ccc2c1` [METHYL 7-DESOXYPURPUROGALLIN-7-CARBOXYLATE TRIMETHYL ETHER], for which the half-maximal activity concentration (AC50) at Cytochrome P450 3A4 is 39.8 µM (inconclusive).

In the case of `COc1cc(-c2[nH]c(C(=O)NC3CCN(Cc4ccccc4)CC3)cc3c4ccccc4nc2-3)cc(OC)c1OC`, the 50% effective concentration (EC50) was 5.61 µM (active) in assay [16] and 0.125 µM (active) in [17]. The IC50 in assay [7] is > 20 µM (inactive).

With `COc1ccccc1N1CCN(CCCNC(=O)C2CCCN(c3ncnc4c3nc3n4CCCCC3)C2)CC1` (configuration not stated), the 50% effective concentration (EC50) in “cells [1]” and in “cells [2]” was > 350 µM (not active) throughout.

As to `CN(C)c1ccc(NC(=O)/C=C/c2ccccc2Cl)cc1`, the half-inhibitory concentration (IC50) in assay [6] was > 54 µM (active).

Values taken from ChEMBL document CHEMBL1201862, “PubChem BioAssay data set” (2004).
